From US6939874B2, “Substituted pyrimidinyl derivatives and methods of use” (Amgen Inc., priority 2001, dated 2005)
pIC50: −log10 of the molar value.

The compounds below were run on 3T3 (assay: IGF-1-induced DNA synthesis (3H-thymidine incorporation)). Conditions: NIH3T3, activated with 50 ng/mL IGF-1, read-out: inhibited 3T3 proliferation.
Assay type: cell-based
Method: IGF-1-Induced DNA Synthesis.
Human tumor cell lines or a rat fibroblast cell line are plated out in flat-well plates in complete medium and allowed to adhere overnight. The cells are then starved in medium containing 0.1% bovine serum albumin (BSA) overnight, pre-incubated for 1 h with or without dilutions of compound, then activated overnight with 50 ng/mL insulin-like growth factor (IGF-1). Proliferation is determined by the level of ^3H-thymidine incorporation into DNA.
In the case of COc1cc(Nc2nccc(Nc3cnc4ccccc4c3)n2)ccc1OCCN1CCN(c2nccc(Nc3cnc4ccccc4c3)n2)CC1 [Example 132, N^2-[3-Methoxy-4-(2-{4-[4-(quinolin-3-ylamino)-pyrimidin-2-yl]-piperazin-1-yl}-ethoxy)-phenyl]-N^4-quinolin-3-yl-pyrimidine-2,4-diamine], the pIC50 was > 6.82. COc1cc(Nc2nccc(Nc3ccc4nc(C)ccc4c3)n2)cc(OC)c1OC [Example 118, N^4-(2-Methyl-6-quinolinyl)-N^2-(3,4,5-tris(methoxy)phenyl)-2,4-pyrimidinediamine] was tested, and the pIC50 was > 6.82. In the case of COc1cc(Nc2nccc(Nc3cnc4ccccc4c3)n2)ccc1OCCC1CCN(c2nccc(Nc3cnc4ccccc4c3)n2)CC1 [Example 151, N^2-[3-Methoxy-4-(2-{1-[4-(quinolin-3-ylamino)-pyrimidin-2-yl]-piperidin-4-yl}-ethoxy)-phenyl]-N^4-quinolin-3-yl-pyrimidine-2,4-diamine], the pIC50 was > 6.82. In the case of COc1cc(Nc2nccc(Nc3cnc4ccc(O)cc4c3)n2)cc(OC)c1OC [Example 135, N^4-(6-Hydroxy-quinolin-3-yl)-N^2-(3,4,5-tris(methoxy)phenyl)-2,4-pyrimidinediamine], the pIC50 was > 6.82. In the case of CC(=O)c1ccc(Nc2nccc(Nc3cnc4ccccc4c3)n2)cc1 [Example 59, 1-(4-((4-(3-quinalinylamino)-2-pyrimidinyl)amino)phenyl)ethanone], the pIC50 was > 6.82. With CC(=O)N1CC(C)(C)c2ccc(Nc3nccc(Nc4cnc5ccccc5c4)n3)cc21 [Example 110, N^2-(1-acetyl-3,3-dimethyl-2,3-dihydro-1H-indol-6-yl)-N^4-(3-quinolinyl)-2,4-pyrimidinediamine] the pIC50 was > 6.82. With COc1cc(Nc2nccc(Nc3cnc4ccccc4c3)n2)cc(OC)c1OC [Example 1, N^4-Quinolin-3-yl-N^2-(3,4,5-trimethoxyphenyl)pyrimidine-2,4-diamine] the pIC50 was > 6.82. c1ccc2ncc(Nc3ccnc(Nc4ccc(OCCN5CCCCC5)cc4)n3)cc2c1 [Example 99, N^2-(4-((2-(1-Piperidinyl)ethyl)oxy)phenyl)-N^4-(3-quinolinyl)-2,4-pyrimidinediamine] was tested, and the pIC50 was > 6.82. With COc1cc(Nc2nccc(Nc3cnc4ccccc4c3)n2)ccc1CCC(=O)N1CCCC1 [Example 149, 3-{2-Methoxy-4-[4-(quinolin-3-ylamino)-pyrimidin-2-ylamino]-phenyl}-1-pyrrolidin-1-yl-propanone] the pIC50 was > 6.82. In the case of c1cc(Nc2nccc(Nc3ccc4ncccc4c3)n2)cc(-c2cnco2)c1 [Example 105, N^2-(3-(1,3-oxazol-5-yl)phenyl)-N^4-(6-quinolinyl)-2,4-pyrimidinediamine], the pIC50 was > 6.82. For COc1cc(Nc2nccc(Nc3cnc4ccc(OC(F)(F)F)cc4c3)n2)cc(OC)c1OC [Example 139, N^2-(3,4,5-Tris(methoxy)phenyl)-N^4-(6-trifluoromethoxy-3-quinolinyl)-2,4-pyrimidinediamine], the pIC50 was > 6.82. c1ccc2ncc(Nc3ccnc(Nc4ccc(OCCCN5CCCCC5)cc4)n3)cc2c1 [Example 98, N^2-[4-(3-Piperidin-1-yl-propoxy)-phenyl]-N^4-4-quinolin-3-yl-pyrimidine-2,4-diamine] was tested, and the pIC50 was > 6.82. For COc1ccc2ncc(Nc3ccnc(Nc4cc(OC)c(OC)cc4C)n3)cc2c1 [Example 137, N^4-(6-Methoxy-3-quinolinyl)-N^2-(2-methyl-4,5-dimethoxyphenyl)-2,4-pyrimidinediamine], the pIC50 was > 6.82. In the case of COc1cc(Nc2nccc(Nc3ccc4ncccc4c3)n2)cc(OC)c1OC [Example 14, N^4-quinolin-6-yl-N^2-(3,4,5-trimethoxyphenyl)-pyrimidine-2,4-diamine], the pIC50 was > 6.82. COc1cc(C)c(Nc2nccc(Nc3cnc4ccccc4c3)n2)cc1OC [Example 20, N^2-(3,4-dimethoxy-6-methylphenyl)-N^4-quinolin-3-yl-pyrimidine-2,4-diamine] was tested, and the pIC50 was > 6.82. COc1cc(Nc2nccc(Nc3cnc4ccccc4c3)n2)ccc1/C=C/C(=O)N1CCCC1 [Example 148, 3-{2-Methoxy-4-[4-(quinolin-3-ylamino)-pyrimidin-2-ylamino]-phenyl}-1-pyrrolidin-1-yl-propenone] was tested, and the pIC50 was > 6.82. In the case of COc1cc(Nc2nccc(Nc3cnc4ccccc4c3)n2)ccc1CCCN1CCCC1 [Example 150, N^2-[3-Methoxy-4-(3-pyrrolidin-1-yl-propyl)-phenyl]-N-4-quinolin-3-yl-pyrimidine-2,4-diamine], the pIC50 was > 6.82. With COc1ccc(Nc2nccc(Nc3cnc4ccccc4c3)n2)cc1CCN(C)C [Example 100] the pIC50 was > 6.82. With COc1cc(Nc2nccc(Nc3cnc4ccccc4c3)n2)ccc1C(N)=O [Example 94, 2-(Methoxy)-4-((4-(3-quinolinylamino)-2-pyrimidinyl)amino)benzamide] the pIC50 was > 6.82. c1ccc2ncc(Nc3ccnc(Nc4ccc(N5CCOCC5)cc4)n3)cc2c1 [Example 48, N^2-(4-(4-morpholinyl)phenyl)-N -(3-quinolinyl)-2,4-pyrimidinediamine] was tested, and the pIC50 was > 6.82. In the case of CN1CCN(c2ccc(Nc3nccc(Nc4cnc5ccccc5c4)n3)cc2)CC1 [Example 84, N^2-(4-(4-methyl-1-piperazinyl)phenyl)-N^4-(3-qulnolinyl)-2,4-pyrimidinediamine], the pIC50 was > 6.82. For c1cc(Nc2nccc(Nc3cnc4ccccc4c3)n2)cc(-c2cnco2)c1 [Example 104, N^2-(3-(1,3-oxazol-5-yl)phenyl)-N^4-(3-quinolinyl)-2,4-pyrimidinediamine], the pIC50 was > 6.82. c1ccc2ncc(Nc3ccnc(Nc4ccc(N5CCOCC5)nc4)n3)cc2c1 [Example 49, N^2-(6-(4-morpholinyl)-3-pyridinyl)-N^4-(3-quinolinyl)-2,4-pyrimidinediamine] was tested, and the pIC50 was > 6.82. With COc1ccc2ncc(Nc3ccnc(Nc4cc(OC)c(OC)c(OC)c4)n3)cc2c1 [Example 134, N^4-(6-Methoxy-quinolin-3-yl)-N^2-(3,4,5-tris(methoxy)phenyl)-2,4-pyrimidinediamine] the pIC50 was > 6.82. In the case of COc1cc(Nc2nccc(Nc3cc4ccccc4c(OC)n3)n2)cc(OC)c1OC [Example 130, N^4-(1-Methoxy-isoquinolin-3-yl)-N^2-(3,4,5-trimethoxy-phenyl)-pyrimidine-2,4-diamine], the pIC50 was > 6.82. In the case of COc1cc(C)c(Nc2nccc(Nc3cnc4ccc(OC(F)(F)F)cc4c3)n2)cc1OC [Example 140, N^2-(2-Methyl-4,5-dimethoxyphenyl)-N^4-(6-trifluoromethoxy-3-quinolinyl)-2,4-pyrimidinediamine], the pIC50 was > 6.82.
